The results in this text go back to publication PMC6211230, “Assessment of the antiproliferative and apoptotic roles of sulfonamide carbonic anhydrase IX inhibitors in HeLa cancer cell line” (Journal of Enzyme Inhibition and Medicinal Chemistry, 2018).

The structures appear in SMILES notation.

Assay type in all cases: cell-based, human
One assay deals with PNT-1A. The experiment in a line: WST-1 cytotoxicity, PNT-1A normal cells. Particulars: PNT-1A normal cell. The protocol:
(§1) Cancer and normal cell lines were purchased from ATCC and stored in liquid nitrogen. HT-29 (colon adenoma cancer), HeLa (cervix adenoma cancer cell), MDA-MB-231 (breast adenoma cancer cell) and HEK-293 (embryonic kidney epithelial cell), PNT-1A (normal prostate cells) cell lines were incubated in DMEM: F-12 and RPMI-1640, including 10% Foetal Bovine Serum (FBS), 100 μg/mL streptomycin/100 IU/mL penicillin, at 37 °C in an incubator containing 5% CO2, 95% air in a humid atmosphere.
(§2) The cytotoxic effects of the substances were evaluated with WST-1 kits (Roche, Germany) in accordance with the manufacturer’s protocols. The cells were plated on 96-well plates (10^4 cells in each well). After incubation for 24 h, the media were discarded and the substances and Cisplatin as the control drug, at doses of 0, 2.5, 5, 10, 25, 50, 100, and 200 μM, were incubated for 24, 48, and 72 h. WST-1 reactive of 10 µl was added to all wells. Following 4 h incubation, the measurements were taken on a plate reader (Spectramax M5) at wavelengths of 450 and 630 nm. Graphs were then created and the IC50 value of each substance was calculated.
A general note: Formazan colour is commonly taken as a measure of viable cells.

The next assay deals with HeLa. As to the kind of experiment: WST-1 cytotoxicity, HeLa. The protocol:
as §1, §2

For a further assay, the system named is MDA-MB-231. As to the kind of experiment: WST-1 cytotoxicity, MDA-MB-231. The protocol:
as §1, §2

The test system of the next assay is HEK-293. The experiment in a line: WST-1 cytotoxicity, HEK-293 normal cells. Particulars: HEK-293 normal cell. The protocol:
as §1, §2

The test system of another assay is HT-29. The experiment in a line: WST-1 cytotoxicity, HT-29. The protocol:
as §1, §2

Take `N.N.[Cl][Pt][Cl]` [Cisplatin, reference compound]: the IC50 (as a rule, the point on the concentration scale where inhibition reaches its midpoint) in the assay with PNT-1A (24 h) turned out to be 13.4 µM; in the assay with PNT-1A (48 h), 11.4 µM; in the assay on PNT-1A (72 h), 8.2 µM; in the assay with HeLa (24 h), 28.9 µM; with HeLa (48 h), 7.6 µM; in the assay with HeLa (72 h) it was 6.1 µM. The IC50 in the assay with MDA-MB-231 (MDA-MB-231, 24 h) worked out at 21.2 µM; in the assay on MDA-MB-231 (MDA-MB-231, 48 h), 10.2 µM; in the assay with MDA-MB-231 (MDA-MB-231, 72 h) it was 7 µM; in the assay with HEK-293 (24 h), 29.6 µM; in the assay with HEK-293 (48 h), 14 µM; with HEK-293 (72 h), 2 µM. Further, the IC50 in the assay with HT-29 (HT-29, 24 h) was determined as 23.7 µM; in the assay on HT-29 (HT-29, 48 h), 20 µM; with HT-29 (HT-29, 72 h), 16.3 µM.

`NS(=O)(=O)c1ccc(CCN=Cc2cc(Cl)cc(Cl)c2O)cc1` [Compound A-2]: the IC50 in the assay with PNT-1A (24 h) turned out to be 167 µM; with PNT-1A (48 h) it was 170 µM; with PNT-1A (72 h), 100 µM; in the assay with HeLa (24 h) it was 345 µM; in the assay on HeLa (48 h), 300 µM; in the assay with HeLa (72 h), 123 µM. Further, the IC50 turned out to be 125 µM with MDA-MB-231 (MDA-MB-231, 24 h); 145 µM in the assay with MDA-MB-231 (MDA-MB-231, 48 h); 100 µM in the assay on MDA-MB-231 (MDA-MB-231, 72 h); 120 µM in the assay with HEK-293 (24 h); 100 µM in the assay with HEK-293 (48 h); 65.4 µM in the assay with HEK-293 (72 h). Moreover, the IC50 in the assay with HT-29 (HT-29, 24 h) came to 234 µM; in the assay with HT-29 (HT-29, 48 h), 254 µM; in the assay with HT-29 (HT-29, 72 h) it was 134 µM.

For the compound `NS(=O)(=O)c1ccc(CCN=Cc2ccccc2O)cc1` [Compound A-3], the IC50 in the assay with PNT-1A (24 h) stood at 45.4 µM; with PNT-1A (48 h), 43.3 µM; in the assay with PNT-1A (72 h), 23.3 µM; in the assay on HeLa (24 h), 123 µM; in the assay on HeLa (48 h) it was 112 µM; with HeLa (72 h), 76.5 µM. Further, the IC50 in the assay on MDA-MB-231 (MDA-MB-231, 24 h) was determined as 98.5 µM; with MDA-MB-231 (MDA-MB-231, 48 h) it was 80.5 µM; in the assay with MDA-MB-231 (MDA-MB-231, 72 h), 65.4 µM; with HEK-293 (24 h), 98.4 µM; with HEK-293 (48 h), 65.4 µM; with HEK-293 (72 h), 32.2 µM. Moreover, the IC50 in the assay with HT-29 (HT-29, 24 h) was found to be 143 µM; in the assay with HT-29 (HT-29, 48 h) it was 100 µM; with HT-29 (HT-29, 72 h), 87.4 µM.

On to `NS(=O)(=O)c1ccc(CCNCc2cc(Cl)ccc2O)cc1` [Compound B-1], for which the IC50 in the assay with PNT-1A (24 h) is 593 µM; in the assay on PNT-1A (48 h), 190 µM; in the assay on PNT-1A (72 h), 372 µM; with HeLa (24 h), 218 µM; in the assay on HeLa (48 h), 112 µM; in the assay with HeLa (72 h), 98.9 µM. Further, the IC50 turned out to be 492 µM with MDA-MB-231 (MDA-MB-231, 24 h); 595 µM with MDA-MB-231 (MDA-MB-231, 48 h); 243 µM with MDA-MB-231 (MDA-MB-231, 72 h); 324 µM with HEK-293 (24 h); 207 µM in the assay with HEK-293 (48 h); 63.7 µM with HEK-293 (72 h). Further, the IC50 in the assay with HT-29 (HT-29, 24 h) is 606 µM; in the assay on HT-29 (HT-29, 48 h), 63.8 µM; with HT-29 (HT-29, 72 h), 91.8 µM.

As to `NS(=O)(=O)c1ccc(CCNCc2cc(Cl)cc(Cl)c2O)cc1` [Compound B-2], the IC50 came to 55.4 µM in the assay with PNT-1A (24 h); 23.2 µM in the assay with PNT-1A (48 h); 12.3 µM in the assay with PNT-1A (72 h); 234 µM in the assay with HeLa (24 h); 212 µM in the assay with HeLa (48 h); 154 µM in the assay with HeLa (72 h). The IC50 in the assay on MDA-MB-231 (MDA-MB-231, 24 h) came out at 145 µM; in the assay on MDA-MB-231 (MDA-MB-231, 48 h), 43.3 µM; in the assay on MDA-MB-231 (MDA-MB-231, 72 h), 54.3 µM; in the assay on HEK-293 (24 h) it was 230 µM; in the assay with HEK-293 (48 h) it was 215 µM; in the assay with HEK-293 (72 h) it was 120 µM. Besides, the IC50 with HT-29 (HT-29, 24 h) stood at 356 µM; in the assay on HT-29 (HT-29, 48 h), 200 µM; with HT-29 (HT-29, 72 h), 155 µM.

On to `NS(=O)(=O)c1ccc(CCNCc2ccccc2O)cc1` [Compound B-3], for which the IC50 with PNT-1A (24 h) amounted to 100 µM; in the assay on PNT-1A (48 h), 89.4 µM; in the assay with PNT-1A (72 h), 70.4 µM; with HeLa (24 h), 156 µM; in the assay on HeLa (48 h), 134 µM; in the assay with HeLa (72 h), 45.4 µM. Also, the IC50 with MDA-MB-231 (MDA-MB-231, 24 h) is 345 µM; in the assay on MDA-MB-231 (MDA-MB-231, 48 h) it was 234 µM; in the assay with MDA-MB-231 (MDA-MB-231, 72 h), 126 µM; with HEK-293 (24 h) it was 179 µM; in the assay on HEK-293 (48 h), 120 µM; in the assay on HEK-293 (72 h) it was 45.4 µM. Moreover, the IC50 with HT-29 (HT-29, 24 h) stood at 560 µM; in the assay on HT-29 (HT-29, 48 h) it was 450 µM; in the assay on HT-29 (HT-29, 72 h) it was 210 µM.
